Legend:
[1] = system: JEG-3 cells; assay: Specific uptake of cytarabine into the cells (LC/MS); format: cell-based, human; details: Cy 5 μM, after 30 min and 1 h; compared with Pricell-0051, MCF-7, HepG2 cells; P < 0.05
Experimental: JEG-3 cells, MCF-7 cells, or HepG2 cells were plated overnight in 6-well plates. Then, the adhered cells were treated with Cy (5 μM) for 30 min or 60 min. Then, cells were washed with PBS for moving the free drug in the medium. After that, the cells were lysed and treated with acetonitrile for precipitating protein. Finally, the content of Cy was detected by LC/MS (8050, SHIMADZU, Japan).

[2] = system: JEG-3 cells; assay: Effect of endocytosis inhibitors on liposome uptake; format: cell-based, human; details: pre-treatment 30 min; chlorpromazine 50 μM, indomethacin 50 μM, colchicine 10 μM, quercetin 10 μM
Experimental: Endocytosis was studied by adding JEG-3 cells to 6 well-plates and pre-treating them for 30 min with inhibitors of various endocytic pathways including the clathrin-dependent endocytosis inhibitor chlorpromazine (50 μM), the caveolin-dependent endocytosis inhibitor indomethacin (50 μM), the micropinocytosis inhibitor colchicine (10 μM), and quercetin (10 μM) as tools for inhibiting caveolae- or clathrin-independent endocytosis. Then, the medium was removed, and the fresh medium containing Dox-labeled liposomes was added to the plate. The cells were incubated for another 4 h. Subsequent steps were the same as those in uptake assay.

[3] = target: T1, ENT1 (Homo sapiens, UniProt Q99808); assay: Effect of ENT1 competitive inhibitors on MTX formulation cytotoxicity (MTT); details: then 20 μg MTX-equivalent/mL for 48 h; for effect of pre-treatment on toxicity of Cy-Lipo@MTX to JEG-3 cells: inhibitor 0.2-5.0 μM for 2 h
T1 sequence (Q99808 1-456): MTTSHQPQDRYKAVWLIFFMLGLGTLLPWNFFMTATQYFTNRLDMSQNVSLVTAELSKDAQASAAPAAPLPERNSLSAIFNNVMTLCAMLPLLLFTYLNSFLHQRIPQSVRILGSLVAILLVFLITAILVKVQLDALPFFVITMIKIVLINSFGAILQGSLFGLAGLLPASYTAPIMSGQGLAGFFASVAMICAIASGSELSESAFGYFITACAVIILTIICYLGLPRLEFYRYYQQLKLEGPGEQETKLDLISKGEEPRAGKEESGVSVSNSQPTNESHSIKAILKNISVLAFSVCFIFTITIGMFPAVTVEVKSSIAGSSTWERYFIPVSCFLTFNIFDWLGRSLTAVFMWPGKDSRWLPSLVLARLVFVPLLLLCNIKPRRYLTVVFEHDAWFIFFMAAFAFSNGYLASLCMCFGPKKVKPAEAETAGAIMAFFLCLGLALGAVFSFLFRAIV
Experimental: To investigate the effect of ENT1 on MTX formulations induced cytotoxicity, 2′-deoxycytidine and gemcitabine, as competitive inhibitors of ENT1, were cultured with adherent JEG-3 cells for 2 h. Next, the medium was removed, and the fresh medium containing MTX formulations (20 μg MTX-equivalent/mL) was added to the plate. The cells were incubated for another 48 h. MTT reagent was added as previously described, and absorbance was assessed via microplate reader.

[4] = target: T1, ENT1; assay: Competitive inhibition of liposome uptake by ENT1 substrates; format: cell-based; design: endogenous in cells; host or cells: JEG-3 (human choriocarcinoma cells); details: pre-treatment 2 h, 0.2-5.0 μM, then liposomes 4 h
Experimental: Briefly, different concentration (0.2–5.0 μM) of 2′-deoxycytidine or gemcitabine was cultured with the adherent JEG-3 cells for 2 h. Then, the medium was removed, and the fresh medium containing Dox-labeled liposomes was added to the plate. The cells were incubated for another 4 h. Subsequent steps were the same as those in uptake assay.

Nc1ccn([C@@H]2O[C@H](CO)[C@@H](O)[C@@H]2O)c(=O)n1 [Cy, cytosine β-d-arabinofuranoside]
amount of Cy taken up by JEG-3 cells [1]: significantly higher than that taken up by Pricell-0051, MCF-7, and HepG2 cells

O=c1c(O)c(-c2ccc(O)c(O)c2)oc2cc(O)cc(O)c12 [Quercetin, quercetin]
effect of endocytosis inhibitor on uptake of Dox-labeled Cy-Lipo [2]: a certain inhibitory effect

CN(C)CCCN1c2ccccc2Sc2ccc(Cl)cc21 [chlorpromazine]
effect of endocytosis inhibitor on uptake of Dox-labeled Cy-Lipo [2]: next most substantial inhibition

COc1cc2c(c(OC)c1OC)-c1ccc(OC)c(=O)cc1[C@@H](NC(C)=O)CC2 [colchicine]
effect of endocytosis inhibitor on uptake of Dox-labeled Cy-Lipo [2]: reduced effect

Cl.Nc1ccn([C@H]2C[C@H](O)[C@@H](CO)O2)c(=O)n1 [deoxycytidine, 2′-deoxycytidine hydrochloride]
effect of pre-treatment on toxicity of Cy-Lipo@MTX to JEG-3 cells [3]: significantly reduced the toxicity of Cy-Lipo@MTX to JEG-3 cells | effect on uptake of Dox-labeled Cy-Lipo by JEG-3 cells [4]: significantly reduce the uptake of Dox-labeled Cy-Lipo by JEG-3 cells in a concentration-dependent manner | effect on uptake of Dox-labeled Lipo by JEG-3 cells [4]: less of effect

Nc1ccn([C@@H]2O[C@H](CO)[C@@H](O)C2(F)F)c(=O)n1 [gemcitabine]
effect of pre-treatment on toxicity of Cy-Lipo@MTX to JEG-3 cells [3]: significantly reduced the toxicity of Cy-Lipo@MTX to JEG-3 cells | effect of pre-treatment on cytotoxicity of free MTX or Lipo@MTX in JEG-3 cells ([3]; inhibitor for 2 h): little effect | effect on uptake of Dox-labeled Cy-Lipo by JEG-3 cells [4]: significantly influenced the uptake of Dox-labeled Cy-Lipo at concentrations of 1.0 μM and 5.0 μM

COc1ccc2c(c1)c(CC(=O)O)c(C)n2C(=O)c1ccc(Cl)cc1 [indomethacin]
effect of endocytosis inhibitor on uptake of Dox-labeled Cy-Lipo [2]: impacted the uptake of Dox-labeled Cy-Lipo to the greatest extent
